In patent publication US20230148599A1, “FUNGICIDAL MIXTURES CONTAINING PYRAZOLE DERIVATIVES” (FMC Corporation, priority 2020, published 2023):

Experiments:
Format in all cases: in vivo
Septoria tritici [1] = assay: Test A1 (comparative): wheat leaf blotch, wheat seedlings; conditions: 100 = 100% disease control, 0 = no control
Text: (§1) General protocol for preparing test suspensions for Tests A1-F1: the test compounds were first dissolved in acetone in an amount equal to 3% of the final volume and then suspended at the desired concentration (in ppm) in acetone and purified water (50/50 mix by volume) containing 250 ppm of the surfactant PEG400 (polyhydric alcohol esters). The resulting test suspensions were then used in Tests A1-F1.
The test solution was sprayed to the point of run-off on wheat seedlings. The following day the seedlings were inoculated with a spore suspension of Septoria tritici (the causal agent of wheat leaf blotch) and incubated in a saturated atmosphere at 24° C. for 48 h, and then moved to a growth chamber at 20° C. for 17 days, after which time disease ratings were made.
(§2) A rating of 100 indicates 100% disease control and a rating of 0 indicates no disease control (relative to the controls).

[2] = system: Puccinia recondita f. sp. tritici; assay: Test B1 (comparative): wheat leaf rust, wheat seedlings; conditions: 100 = 100% disease control
Text: as §1
The test solution was sprayed to the point of run-off on wheat seedlings. The following day the seedlings were inoculated with a spore suspension of Puccinia recondita f. sp. tritici (the causal agent of wheat leaf rust) and incubated in a saturated atmosphere at 20° C. for 24 h, and then moved to a growth chamber at 20° C. for 7 days, after which time disease ratings were made.
as §2

[3] = system: Blumeria graminis f. sp. tritici; assay: Test C1 (comparative): wheat powdery mildew, wheat seedlings; conditions: 100 = 100% disease control
Text: as §1
The test suspension was sprayed to the point of run-off on wheat seedlings. The following day the seedlings were inoculated with a spore dust of Blumeria graminis f. sp. tritici, (also known as Erysiphe graminis f. sp. tritici, the causal agent of wheat powdery mildew) and incubated in a growth chamber at 20° C. for 8 days, after which time visual disease ratings were made.
as §2

Alternaria solani [4] = assay: Test F1 (comparative): tomato early blight, tomato seedlings; conditions: 100 = 100% disease control
Text: as §1
The test suspension was sprayed to the point of run-off on tomato seedlings. The following day the seedlings were inoculated with a spore suspension of Alternaria solani (the causal agent of tomato early blight) and incubated in a saturated atmosphere at 27° C. for 48 h, and then moved to a growth chamber at 20° C. for 3 days, after which time visual disease ratings were made.
as §2

Botrytis cinerea [5] = assay: Test E1 (comparative): tomato Botrytis, tomato seedlings; conditions: 100 = 100% disease control
Text: as §1
The test suspension was sprayed to the point of run-off on tomato seedlings. The following day the seedlings were inoculated with a spore suspension of Botrytis cinerea (the causal agent of tomato Botrytis) and incubated in a saturated atmosphere at 20° C. for 48 h, and then moved to a growth chamber at 24° C. for 3 days, after which time visual disease ratings were made.
as §2

Septoria tritici [6] = assay: Test A: wheat leaf blotch, preventive spray on wheat seedlings; conditions: 50 ppm, 100 = 100% disease control, 0 = no control
Outline: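 Preventive test: one day after spraying seedlings to run-off (concentrations in ppm; acetone/water, 250 ppm PEG400), Septoria tritici spores applied. Scored after 48 h humid incubation at 24 °C plus 17 days at 20 °C, as percent disease control versus untreated controls (100 = full control).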

[7] = system: Puccinia recondita f. sp. tritici; assay: Test B: wheat leaf rust, preventive spray on wheat seedlings; conditions: 50 ppm, 100 = 100% disease control, 0 = no control
Outline: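 Preventive test: compound in acetone/water 50/50 with 250 ppm PEG400 was sprayed onto wheat seedlings one day before inoculation with leaf rust spores. After 24 h in saturated air and 7 days in a growth chamber, both at 20 °C, disease control was scored from 0 to 100 against controls.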

[8] = system: Blumeria graminis f. sp. tritici; assay: Test C: wheat powdery mildew, preventive spray on wheat seedlings; conditions: 50 ppm, 100 = 100% disease control, 0 = no control
Outline: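 Preventive test: inoculation with spore dust came one day after spraying seedlings to run-off with ppm suspensions in acetone/water (50/50) plus 250 ppm PEG400 surfactant. Visual ratings after 8 days' incubation at 20° C give percent disease control relative to controls.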

Alternaria solani [9] = assay: Test F: tomato early blight, preventive spray on tomato seedlings; conditions: 50 ppm, 100 = 100% disease control, 0 = no control
Outline: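 Preventive test: one day after the compound spray, seedlings were inoculated with A. solani, incubated saturated at 27 °C for 48 h, then kept at 20 °C for 3 days. Test suspensions contained acetone/water 50/50 with 250 ppm PEG400 surfactant. Visual ratings run from 0 (no control) to 100 (full control).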

Phakopsora pachyrhizi = assay: Test D: Asian soybean rust, preventive spray on soybean seedlings; conditions: 50 ppm, 100 = 100% disease control, 0 = no control
Outline: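 Compounds in acetone/water (50/50) with 250 ppm PEG400, dosed in ppm, sprayed to run-off on soybean seedlings; inoculated with P. pachyrhizi spores next day. Held 24 h at 22 °C in saturated air, then 8 days at 22 °C; visual rating of disease control, 0–100, relative to untreated controls.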

Botrytis cinerea [10] = assay: Test E: tomato Botrytis, preventive spray on tomato seedlings; conditions: 50 ppm, 100 = 100% disease control, 0 = no control
Outline: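 Preventive test: seedlings sprayed to run-off with compound in acetone/water (50/50) plus 250 ppm PEG400, inoculated one day later with B. cinerea spores. Held 48 h saturated at 20° C, then 3 days at 24° C; disease control scored visually from 0 to 100 versus controls.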

Compound | Test A1 disease control rating (Septoria tritici [1]; Rate 10 ppm) | Test A1 disease control rating (Septoria tritici [1]; Rate 50 ppm) | Test B1 disease control rating ([2]; Rate 10 ppm) | Test B1 disease control rating ([2]; Rate 50 ppm) | Test C1 disease control rating ([3]; Rate 10 ppm) | Test C1 disease control rating ([3]; Rate 50 ppm) | Test F1 disease control rating (Alternaria solani [4]; Rate 10 ppm) | Test F1 disease control rating (Alternaria solani [4]; Rate 50 ppm) | Test E1 disease control rating (Botrytis cinerea [5]; Rate 10 ppm) | Test E1 disease control rating (Botrytis cinerea [5]; Rate 50 ppm) | Test A disease control rating (Septoria tritici [6]) | Test B disease control rating [7] | Test C disease control rating [8] | Test F disease control rating (Alternaria solani [9]) | Test D disease control rating (Phakopsora pachyrhizi) | Test E disease control rating (Botrytis cinerea [10])
Cc1nn(C)c(Nc2ccc([N+](=O)[O-])cc2F)c1-c1ccc(F)cc1Cl [Cmpd. from WO 2010/101973, reference compound] | 45% | 91% | 0% | 0% | 0% | 0% | 0% | 0% | 0% | 40% | – | – | – | – | – | –
Cc1nn(C)c(Nc2ccccc2[N+](=O)[O-])c1-c1c(F)cc(F)cc1Cl [compound 148] | – | – | – | – | – | – | – | – | – | – | 100% | 99% | 98% | 100% | 13% | 99%
Cc1nn(C)c(Nc2ccc(F)cc2[N+](=O)[O-])c1-c1c(F)cccc1Cl [compound 44] | – | – | – | – | – | – | – | – | – | – | 100% | 99% | 98% | 46% | 0% | 95%
Cc1cc(Cl)c(Nc2c(-c3ccc(F)cc3Br)c(C)nn2C)c([N+](=O)[O-])c1 [compound 181] | – | – | – | – | – | – | – | – | – | – | 100% | 100% | 99% | 99% | 78% | 99%
Cc1nn(C)c(Nc2c(F)cc(F)cc2[N+](=O)[O-])c1-c1c(F)cc(F)cc1Cl [compound 199] | – | – | – | – | – | – | – | – | – | – | 99% | 100% | 100% | 100% | 100% | 99%
Cc1nn(C)c(Nc2c(F)cccc2[N+](=O)[O-])c1-c1ccc([N+](=O)[O-])cc1Cl [compound 192] | – | – | – | – | – | – | – | – | – | – | 100% | 99% | 76% | 93% | 19% | 99%
Cc1nn(C)c(Nc2cc(Cl)ccc2[N+](=O)[O-])c1-c1ccc(F)cc1Cl [compound 130] | – | – | – | – | – | – | – | – | – | – | 85% | 86% | 20% | 0% | 0% | 85%
CCc1nn(C)c(Nc2c(F)cc(C)cc2[N+](=O)[O-])c1-c1ccc(F)cc1F [compound 185] | – | – | – | – | – | – | – | – | – | – | 100% | 100% | 99% | 99% | 0% | 96%
Cc1nn(C)c(Nc2ccccc2[N+](=O)[O-])c1-c1ccc(F)cc1Cl [compound 126] | – | – | – | – | – | – | – | – | – | – | 98% | 85% | 96% | 68% | 0% | 100%
COc1ccc(Nc2c(-c3ccc(C#N)cc3F)c(C)nn2C)c([N+](=O)[O-])c1 [compound 179] | – | – | – | – | – | – | – | – | – | – | 100% | 96% | 93% | 85% | 0% | 99%
Cc1ccc(Nc2c(-c3c(F)cccc3Cl)c(C)nn2C)c([N+](=O)[O-])c1 [compound 195] | – | – | – | – | – | – | – | – | – | – | 100% | 98% | 97% | 73% | 0% | 98%
Cc1nn(C)c(Nc2cccc(Cl)c2[N+](=O)[O-])c1-c1c(F)cccc1F [compound 99] | – | – | – | – | – | – | – | – | – | – | 99% | 0% | 0% | 0% | 0% | 24%
COc1ccc(-c2c(C)nn(C)c2Nc2c(F)cc(Cl)cc2[N+](=O)[O-])c(Cl)c1 [compound 81] | – | – | – | – | – | – | – | – | – | – | 100% | 99% | 89% | 99% | 0% | 95%
COc1ccc(Nc2c(-c3c(F)cc(C#N)cc3F)c(C)nn2C)c([N+](=O)[O-])c1 [compound 150] | – | – | – | – | – | – | – | – | – | – | 100% | 100% | 98% | 99% | 13% | 100%
